Experimental data: patent US20240166604A1, “HYDROXYTYROSOL NICOTINAMIDE EUTECTIC CRYSTAL, AND PREPARATION METHOD THEREFOR AND COMPOSITION THEREOF” (COCRYSTAL TECHNOLOGY (JIAXING) CO., LTD., priority 2021, published 2024)

Assays:
[1] = Hygroscopicity by dynamic moisture sorption (DVS); assay type: physicochemical; conditions: 80% relative humidity, 25° C.
Procedure: About 5 mg of powder sample was weighed and put in a dynamic moisture sorption instrument (DVS). The relative humidity range was set at from 0 to 95%, and the temperature was set at 25° C. The weight change of the samples under different environmental humidity conditions were recorded and used to compare the hygroscopicity of the material.

[2] = Chemical stability at 40° C./75% RH, hydroxytyrosol content by HPLC; assay type: physicochemical; conditions: double-layer polyethylene bags; for content of hydroxytyrosol, Day 0: 0 d, initial content set as 100%; for content of hydroxytyrosol, Day 14: 14 d; for content of hydroxytyrosol, Day 14 / content of hydroxytyrosol, Day 30: % of initial content; for content of hydroxytyrosol, Day 30: 30 d
Procedure: An appropriate amount of powder sample was put in an accelerated stability chamber at 40° C./75% RH with the packaging condition of double-layer polyethylene bags, and the sample was taken at 0 d, 14 d, and 30 d. The content of hydroxytyrosol was determined by high performance liquid chromatography (the content was calculated by external standard method).

Row | content of hydroxytyrosol, Day 30 [2] [%] | content of hydroxytyrosol, Day 30 ([2]; listed as hydroxytyrosol itself) [%] | Compound | hygroscopicity (weight change) [1] [%] | content of hydroxytyrosol, Day 0 [2] [%] | content of hydroxytyrosol, Day 14 [2] [%] | hygroscopicity (in words) [1]
1 | 92.3 | 92.3 | OCCc1ccc(O)c(O)c1 [Hydroxytyrosol itself, Hydroxytyrosol] | 16.9 | 100.0 | 98.8 | –
2 | – | – | co-crystal of hydroxytyrosol and nicotinamide [Example 1] | 0.39 | 100.0 | 99.7 | basically non-hygroscopic
